How the values were obtained:
Format in all cases: biochemical
myeloperoxidase (MPO) [1] = molecular target: T1, myeloperoxidase (MPO) (Homo sapiens (Human), UniProt P05164); assay: MPO chlorination assay (APF assay)
myeloperoxidase (MPO) [2] = molecular target: T1, myeloperoxidase (MPO); assay: MPO peroxidation assay (Amplex Red assay)
[3] = molecular target: eosinophil peroxidase (EPX) (Homo sapiens (Human), UniProt P11678); assay: EPX bromination assay
Procedure: [formula] where A=minimal Y value (activity level of inhibited sample), B=maximal Y value (activity level of uninhibited sample), C=Log IC50, D=Hill Slope, x=concentration of inhibitor. EPX Bromination Assay
EPX bromination activity was measured in 100 mM KPi (pH 7.4) by monitoring the H2O2 catalyzed formation of 3-bromo tyrosine from tyrosine and potassium bromide. A 50 μl mixture of 0.6 μM EPX (Lee Biosolutions Cat#342-60) was added to 100 nL inhibitor in 100% DMSO in a 384 well REMP plate. Enzyme and compound were preincubated for ten minutes at room temperature.
After the ten minute preincubation of enzyme and inhibitor, 25 μL of a mixture containing 400 μM tyrosine and 1200 μM potassium bromide was added to the plate containing enzyme and inhibitor, followed by the addition of 25 μl of 20 μM H2O2. The reaction was allowed to proceed for 15 minutes, at which time it was quenched with 10 μL of 20% TCA. The final concentrations of all components were 0.3 μM EPX, 100 μM tyrosine, […], 5 μM H2O2, 0.1% DMSO, 2.0% TCA.
IC50 values were determined by determining the peak areas of 3-bromo-tyrosine present at the end of the 15 minute reaction and fitting the data to:
[formula] where A=minimal Y value (activity level of inhibited sample), B=maximal Y value (activity level of uninhibited sample), C=Log IC50, D=Hill Slope, x=concentration of inhibitor.
Reversed-phase analysis was performed on a Waters Acquity Ultra Performance LC system using an Acquity UPLC BEH C18 […], 2.1×50 mm analytical column. The column was maintained at 60° C. Samples were eluted using a gradient of 0%-100% B over 2.5 minutes, followed by equilibration with 100% A for 1 minute where A consisted of 0.1% TFA and B consisted of 90% MeOH/0.1% TFA at a flow rate of 0.6 ml/min. The retention time of 3-bromo tyrosine was 1.22 min.

[4] = MPO chlorination, potency range class, read-out: APF Assay IC50 value
[5] = MPO peroxidation, potency range class, read-out: Amplex Red Assay IC50 value

T1 sequence (P05164 49-745): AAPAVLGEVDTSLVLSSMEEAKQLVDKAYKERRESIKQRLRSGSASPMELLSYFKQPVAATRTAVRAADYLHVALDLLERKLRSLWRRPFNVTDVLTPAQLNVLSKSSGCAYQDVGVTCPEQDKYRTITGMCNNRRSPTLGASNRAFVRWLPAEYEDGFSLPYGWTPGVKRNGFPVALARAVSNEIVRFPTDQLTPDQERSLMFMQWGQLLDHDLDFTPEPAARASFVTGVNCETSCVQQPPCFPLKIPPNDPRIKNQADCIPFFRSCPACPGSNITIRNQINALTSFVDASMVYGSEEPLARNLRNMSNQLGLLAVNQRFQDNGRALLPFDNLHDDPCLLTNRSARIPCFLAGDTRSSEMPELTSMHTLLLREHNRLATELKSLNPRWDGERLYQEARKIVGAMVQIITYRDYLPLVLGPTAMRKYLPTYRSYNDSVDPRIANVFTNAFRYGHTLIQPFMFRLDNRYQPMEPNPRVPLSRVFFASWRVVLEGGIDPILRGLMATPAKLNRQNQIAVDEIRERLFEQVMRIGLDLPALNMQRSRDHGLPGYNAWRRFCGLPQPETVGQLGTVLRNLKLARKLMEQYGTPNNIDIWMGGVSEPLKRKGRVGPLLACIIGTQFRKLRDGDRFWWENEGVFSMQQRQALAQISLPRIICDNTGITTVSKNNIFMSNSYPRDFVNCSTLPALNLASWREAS
Chain of eosinophil peroxidase (EPX) (P11678 140-715): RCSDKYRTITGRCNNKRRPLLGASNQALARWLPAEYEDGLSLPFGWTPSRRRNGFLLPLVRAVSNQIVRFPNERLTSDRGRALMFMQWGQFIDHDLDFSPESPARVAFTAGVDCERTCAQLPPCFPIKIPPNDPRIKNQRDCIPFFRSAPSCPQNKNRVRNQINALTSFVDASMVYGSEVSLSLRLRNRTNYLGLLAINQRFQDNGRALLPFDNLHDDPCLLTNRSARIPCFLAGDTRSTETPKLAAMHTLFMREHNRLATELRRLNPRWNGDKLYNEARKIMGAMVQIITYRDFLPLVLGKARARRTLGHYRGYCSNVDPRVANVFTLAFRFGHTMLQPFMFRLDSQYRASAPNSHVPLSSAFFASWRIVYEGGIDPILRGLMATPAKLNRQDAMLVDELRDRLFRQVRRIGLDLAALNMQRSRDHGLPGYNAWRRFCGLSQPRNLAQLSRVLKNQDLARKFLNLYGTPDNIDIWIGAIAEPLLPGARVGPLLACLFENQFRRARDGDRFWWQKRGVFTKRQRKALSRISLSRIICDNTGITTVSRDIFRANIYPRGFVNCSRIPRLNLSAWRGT

Nc1cc(Cc2ccc(-n3cccn3)cc2)c2nn[nH]c2n1 [Example 11, 7-(4-(1H-pyrazol-1-yl)benzyl)-3H-[1,2,3]triazolo [4,5-b]pyridin-5-amine]
IC50 (myeloperoxidase (MPO) [1]; [4]): 0.101 to 0.999 µM
IC50 (myeloperoxidase (MPO) [2]; [5]): 0.101 to 0.999 µM

CS(=O)(=O)c1cccc(Cc2cc(N)nc3[nH]nnc23)c1 [Example 13, 7-(3-(methylsulfon-yl)benzyl)-3H-[1,2,3]triazolo [4,5-b]pyridin-5-amine]
IC50 (myeloperoxidase (MPO) [1]): 1 to 10 µM
IC50 (myeloperoxidase (MPO) [2]): 1 to 10 µM

Nc1cc(Cc2cccc(-c3cccc(F)c3)c2)c2nn[nH]c2n1 [Example 14, 7-((3′-fluoro-[1,1′-biphenyl]-3-yl)methyl)-3H-[1,2,3]triazolo [4,5-b] pyridin-5-amine]
IC50 (myeloperoxidase (MPO) [1]; [4]): 0.001 to 0.1 µM
IC50 (myeloperoxidase (MPO) [2]; [5]): 0.101 to 0.999 µM

Nc1cc(Cc2cccc(Cc3ccccc3)c2)c2nn[nH]c2n1 [Example 16, 7-(3-benzylbenzyl)-3H-[1,2,3]triazolo [4,5-b]pyridin-5-amine]
IC50 (myeloperoxidase (MPO) [1]; [4]): 0.001 to 0.1 µM
IC50 (myeloperoxidase (MPO) [2]; [5]): 0.001 to 0.1 µM

Nc1cc(Cc2cc(Cl)ccc2F)c2nn[nH]c2n1 [Example 21, 7-(5-chloro-2-fluorobenzyl)-3H-[1,2,3] triazolo[4,5-b]pyridin-5-amine]
IC50 (myeloperoxidase (MPO) [1]; [4]): 0.001 to 0.1 µM
IC50 (myeloperoxidase (MPO) [2]; [5]): 0.001 to 0.1 µM

Nc1cc(Cc2ccc(F)cc2)c2nn[nH]c2n1 [Example 28, 7-(4-fluorobenzyl)-3H-[1,2,3]triazolo [4,5-b]pyridin-5-amine]
IC50 (myeloperoxidase (MPO) [1]; [4]): 0.101 to 0.999 µM
IC50 (myeloperoxidase (MPO) [2]; [5]): 0.101 to 0.999 µM

Nc1cc(Cc2cccc(OC(F)(F)F)c2)c2nn[nH]c2n1 [Example 29, 7-(3-(trifluorometh-oxy)benzyl)-3H-[1,2,3]triazolo [4,5-b]pyridin-5-amine]
IC50 (myeloperoxidase (MPO) [1]; [4]): 0.101 to 0.999 µM
IC50 (myeloperoxidase (MPO) [2]; [5]): 0.101 to 0.999 µM

Cc1cc(C)cc(Cc2cc(N)nc3[nH]nnc23)c1 [Example 31, 7-(3,5-dimethylbenzyl)-3H-[1,2,3] triazolo[4,5-b]pyridin-5-amine]
IC50 (myeloperoxidase (MPO) [1]; [4]): 0.101 to 0.999 µM
IC50 (myeloperoxidase (MPO) [2]; [5]): 0.001 to 0.1 µM
IC50 [3]: 0.034 µM

Nc1cc(Cc2ccc(F)c(F)c2)c2nn[nH]c2n1 [Example 34, 7-(3,4-difluorobenzyl)-3H-[1,2,3] triazolo[4,5-b]pyridin-5-amine]
IC50 (myeloperoxidase (MPO) [1]; [4]): 0.101 to 0.999 µM
IC50 (myeloperoxidase (MPO) [2]; [5]): 0.101 to 0.999 µM

Nc1cc(Cc2ccc(-c3ccccc3)cc2)c2nn[nH]c2n1 [Example 37, 7-([1,1′-biphenyl]-4-ylmethyl)-3H-[1,2,3]triazolo [4,5-b]pyridin-5-amine]
IC50 (myeloperoxidase (MPO) [1]; [4]): 0.101 to 0.999 µM
IC50 (myeloperoxidase (MPO) [2]; [5]): 0.101 to 0.999 µM

Nc1cc(Cc2cccc(C(=O)c3ccccc3)c2)c2nn[nH]c2n1 [Example 40, (3-((5-amino-3H-[1,2,3]triazolo [4,5-b]pyridin-7-yl)methyl)phenyl)(phenyl) methanone]
IC50 (myeloperoxidase (MPO) [1]; [4]): 0.101 to 0.999 µM
IC50 (myeloperoxidase (MPO) [2]; [5]): 0.101 to 0.999 µM

Nc1cc(Cc2ccc(F)cc2F)c2nn[nH]c2n1 [Example 43, 7-(2,4-difluorobenzyl)-3H-[1,2,3] triazolo[4,5-b]pyridin-5-amine]
IC50 (myeloperoxidase (MPO) [1]; [4]): 0.101 to 0.999 µM
IC50 (myeloperoxidase (MPO) [2]; [5]): 0.101 to 0.999 µM

Nc1cc(Cc2cccc(F)c2F)c2nn[nH]c2n1 [Example 44, 7-(2,3-difluorobenzyl)-3H-[1,2,3] triazolo[4,5-b]pyridin-5-amine]
IC50 (myeloperoxidase (MPO) [1]; [4]): 0.101 to 0.999 µM
IC50 (myeloperoxidase (MPO) [2]; [5]): 0.001 to 0.1 µM

Nc1cc(Cc2cccc(C(=O)NCCc3ccccc3)c2)c2nn[nH]c2n1 [Example 47, 3-((5-Amino-3H-[1,2,3]triazolo[4,5-b]pyridin-7-yl)methyl)-N-phenethylbenzamide]
IC50 (myeloperoxidase (MPO) [1]; [4]): 0.101 to 0.999 µM
IC50 (myeloperoxidase (MPO) [2]; [5]): 0.101 to 0.999 µM

Nc1cc(Cc2cccc(-c3ccn(Cc4ccccc4)n3)c2)c2nn[nH]c2n1 [Example 48, 7-(3-(1-Benzyl-1H-pyrazol-3-yl)benzyl)-3H-[1,2,3]triazolo[4,5-b]pyridin-5-amine]
IC50 (myeloperoxidase (MPO) [1]; [4]): 0.101 to 0.999 µM
IC50 (myeloperoxidase (MPO) [2]; [5]): 0.001 to 0.1 µM

COC(=O)c1cc(Cc2cc(N)nc3[nH]nnc23)ccc1F [Example 50, methyl 5-((5-amino-3H-[1,2,3]triazolo [4,5-b]pyridin-7-yl)methyl)-2-fluorobenzoate]
IC50 (myeloperoxidase (MPO) [1]; [4]): 0.101 to 0.999 µM
IC50 (myeloperoxidase (MPO) [2]; [5]): 0.101 to 0.999 µM

COc1cccc(Cc2cc(N)nc3[nH]nnc23)n1 [Example 51, 7-((6-Methoxypyridin-2-yl)methyl)-3H-[1,2,3]triazolo[4,5-b]pyridin-5-amine]
IC50 (myeloperoxidase (MPO) [1]; [4]): 1 to 10 µM
IC50 (myeloperoxidase (MPO) [2]; [5]): 0.101 to 0.999 µM

Nc1cc(Cc2cccnc2)c2nn[nH]c2n1 [Example 56, 7-(pyridin-3-ylmethyl)-3H-[1,2,3] triazolo[4,5-b]pyridin-5-amine]
IC50 (myeloperoxidase (MPO) [1]; [4]): 0.101 to 0.999 µM
IC50 (myeloperoxidase (MPO) [2]; [5]): 0.101 to 0.999 µM

Nc1cc(Cc2cncc(Cl)c2)c2nn[nH]c2n1 [Example 57, 7-((5-chloropyridin-3-yl)methyl)-3H-[1,2,3]triazolo [4,5-b]pyridin-5-amine]
IC50 (myeloperoxidase (MPO) [2]; [5]): 0.001 to 0.1 µM
IC50 [3]: 0.052 µM

Nc1cc(Cc2ccc(Oc3ccccc3)nc2)c2nn[nH]c2n1 [Example 58, 7-((6-phenoxypyridin-3-yl)methyl)-3H-[1,2,3]triazolo [4,5-b]pyridin-5-amine]
IC50 (myeloperoxidase (MPO) [1]; [4]): 0.101 to 0.999 µM
IC50 (myeloperoxidase (MPO) [2]; [5]): 1 to 10 µM

CCn1ccc2c(Cc3cc(N)nc4[nH]nnc34)cccc21 [Example 60, 7-((1-Ethyl-1H-indol-4-yl)methyl)-3H-[1,2,3]triazolo[4,5-b]pyridin-5-amine]
IC50 (myeloperoxidase (MPO) [2]; [5]): 0.101 to 0.999 µM

Nc1cc(Cc2cccc3c2ccn3Cc2cccc(-c3ccccc3)c2)c2nn[nH]c2n1 [Example 61, 7-((1-([1,1′-Biphenyl]-3-ylmethyl)-1H-indol-4-yl)methyl)-3H-[1,2,3]triazolo[4,5-b]pyridin-5-amine]
IC50 (myeloperoxidase (MPO) [2]; [5]): 0.001 to 0.1 µM

Nc1cc(Cc2cccc3c2ccn3Cc2cccc(Cc3ccccc3)c2)c2nn[nH]c2n1 [Example 62, 7-((1-(3-Benzylbenzyl)-1H-indol-4-yl)methyl)-3H-[1,2,3]triazolo[4,5-b]pyridin-5-amine]
IC50 (myeloperoxidase (MPO) [1]; [4]): 0.001 to 0.1 µM
IC50 (myeloperoxidase (MPO) [2]; [5]): 0.001 to 0.1 µM

Nc1cc(Cc2cccc3c2ccn3Cc2cccc(OCc3ccccc3)c2)c2nn[nH]c2n1 [Example 63, 7-((1-(3-(Benzyloxy)benzyl)-1H-indol-4-yl)methyl)-3H-[1,2,3]triazolo[4,5-b]pyridin-5-amine]
IC50 (myeloperoxidase (MPO) [1]; [4]): 0.001 to 0.1 µM
IC50 (myeloperoxidase (MPO) [2]; [5]): 0.001 to 0.1 µM

Nc1cc(Cc2cccc3c2ccn3Cc2cccc(F)c2)c2nn[nH]c2n1 [Example 64, 7-((1-(3-Fluorobenzyl)-1H-indol-4-yl)methyl)-3H-[1,2,3]triazolo[4,5-b]pyridin-5-amine]
IC50 (myeloperoxidase (MPO) [1]; [4]): 0.101 to 0.999 µM
IC50 (myeloperoxidase (MPO) [2]; [5]): 0.001 to 0.1 µM
IC50 [3]: 0.019 µM

Nc1cc(Cc2cccc3c2cnn3Cc2ccccc2)c2nn[nH]c2n1 [Example 65, 7-((1-Benzyl-1H-indazol-4-yl)methyl)-3H-[1,2,3]triazolo[4,5-b]pyridin-5-amine]
IC50 (myeloperoxidase (MPO) [1]; [4]): 0.001 to 0.1 µM
IC50 (myeloperoxidase (MPO) [2]; [5]): 0.001 to 0.1 µM

Nc1cc(Cc2cccc3nn(Cc4ccccc4)cc23)c2nn[nH]c2n1 [Example 66, 7-((2-Benzyl-2H-indazol-4-yl)methyl)-3H-[1,2,3]triazolo[4,5-b]pyridin-5-amine]
IC50 (myeloperoxidase (MPO) [1]; [4]): 0.101 to 0.999 µM
IC50 (myeloperoxidase (MPO) [2]; [5]): 0.101 to 0.999 µM

Cn1ncc2ccc(Cc3cc(N)nc4[nH]nnc34)cc21 [Example 67, 7-((1-Methyl-1H-indazol-6-yl)methyl)-3H-[1,2,3]triazolo[4,5-b]pyridin-5-amine]
IC50 (myeloperoxidase (MPO) [2]; [5]): 0.101 to 0.999 µM

Cn1ncc2cc(Cc3cc(N)nc4[nH]nnc34)ccc21 [Example 68, 7-((1-Methyl-1H-indazol-5-yl)methyl)-3H-[1,2,3]triazolo[4,5-b]pyridin-5-amine]
IC50 (myeloperoxidase (MPO) [2]; [5]): 0.101 to 0.999 µM
